Results published in ChEMBL document CHEMBL1140244, “Carbonic anhydrase inhibitors. Synthesis and inhibition of cytosolic/tumor-associated carbonic anhydrase isozymes I, II, and IX with boron-containing sulfonamides, sulfamides, and sulfamates: toward agents for boron neutron capture therapy of hypoxic tumors” (Bioorg Med Chem Lett, 2005).
pKi: −log10 of the molar value.

Key:
[1] = target: Carbonic anhydrase 9 (Homo sapiens, UniProt Q16790)
[2] = target: Carbonic anhydrase 2 (Homo sapiens, UniProt P00918)
[3] = target: Carbonic anhydrase 1 (Homo sapiens, UniProt P00915)
Chain of Carbonic anhydrase 1 (P00915 whole entry): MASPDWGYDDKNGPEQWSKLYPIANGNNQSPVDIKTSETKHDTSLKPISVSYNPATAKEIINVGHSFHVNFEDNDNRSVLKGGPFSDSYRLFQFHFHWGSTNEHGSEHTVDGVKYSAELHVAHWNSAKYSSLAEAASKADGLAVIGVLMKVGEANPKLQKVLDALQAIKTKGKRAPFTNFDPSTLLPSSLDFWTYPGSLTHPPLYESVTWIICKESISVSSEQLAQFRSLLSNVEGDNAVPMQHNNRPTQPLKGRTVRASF

| pKi [1] | pKi [2] | pKi [3] | Structure (SMILES) |
| --- | --- | --- | --- |
| 8.14 | 8.29 | 7.47 | CC1(C)OB(c2ccc(NC(=S)Nc3ccc(S(=O)(=O)Nc4nnc(S(N)(=O)=O)s4)cc3)cc2)OC1(C)C |
|  | 8.27 | 7.16 | CC1(C)OB(c2ccc(C(=O)NCc3ccc(S(N)(=O)=O)cc3)cc2)OC1(C)C |
| 7.09 | 8.26 | 7.15 | CC1(C)OB(c2ccc(NC(=S)Nc3cccc(S(N)(=O)=O)c3)cc2)OC1(C)C |
| 7.28 | 8.28 | 7.15 | CC1(C)OB(c2ccc(C(=O)Nc3ccc(S(N)(=O)=O)cc3)cc2)OC1(C)C |
| 7.38 | 8.29 | 7.15 | CC1(C)OB(c2ccc(C(=O)NCCc3ccc(S(N)(=O)=O)cc3)cc2)OC1(C)C |
| 8.12 | 8.51 | 7.44 | CC1(C)OB(c2ccc(C(=O)Nc3nnc(S(N)(=O)=O)s3)cc2)OC1(C)C |
| 8.03 | 8.01 | 7.04 | CC1(C)OB(c2ccc(NC(=S)Nc3ccc(S(N)(=O)=O)cc3I)cc2)OC1(C)C |

Second part, the compound before the results:

| Structure (SMILES) | pKi [1] | pKi [2] | pKi [3] |
| --- | --- | --- | --- |
| CC1(C)OB(c2ccc(N/C(S)=N/c3ccc(S(N)(=O)=O)cc3Cl)cc2)OC1(C)C | 7.09 | 8.30 | 7.15 |
| CC1(C)OB(c2ccc(NS(N)(=O)=O)cc2)OC1(C)C | 7.09 |  | 7.04 |
| CC1(C)OB(c2ccc(NC(=S)Nc3ccc(S(N)(=O)=O)cc3)cc2)OC1(C)C | 7.10 | 8.29 | 7.16 |
| CC1(C)OB(c2ccc(N/C(S)=N/c3ccc(S(N)(=O)=O)cc3F)cc2)OC1(C)C | 8.00 | 8.29 | 7.11 |
| CC1(C)OB(c2ccc(N/C(S)=N/c3ccc(S(=O)(=O)Nc4ccc(S(N)(=O)=O)cc4)cc3)cc2)OC1(C)C | 7.08 | 8.20 | 7.31 |
| CC1(C)OB(c2ccc(NC(=S)Nc3ccc(S(N)(=O)=O)cc3Br)cc2)OC1(C)C | 7.05 | 8.29 | 7.14 |
| CC1(C)OB(c2ccc(OS(N)(=O)=O)cc2)OC1(C)C | 7.10 | 7.49 | 7.03 |
